According to patent publication US10045939B2, “Unit doses, aerosols, kits, and methods for treating heart conditions by pulmonary administration” (InCarda Therapeutics, Inc., priority 2009, dated 2018):
Where a name gives a salt, the structure may show the parent alone. Read-outs that look alike come from different tables or passages of the source.

Tests used:
[1] = cited from earlier work
[2] = test system: induced supraventricular tachycardia; experiment: Induced supraventricular tachycardia (SVT) model in anesthetized dogs, intratracheal (IT) vs intravenous administration; type: in vivo, dog; conditions: for cardiovascular effect when given intratracheally (summary): intratracheal, summary of study
Experimental: A venous catheter was placed in a peripheral vessel (i.e., cephalic) for administration of anesthetic(s). For anesthesia induction, all animals were given a combination of diazepam (˜0.5 mg/kg) and ketamine (˜10 mg/kg) intravenously through this venous catheter. Anesthesia was sustained until completion of the study with an intravenous infusion of pentobarbital (5-15 mg/kg/hr). Following induction, animals were endotracheally intubated and mechanically ventilated (˜12 breaths/min with a tidal volume of 200-300 mL).
Subsequently, a cut-down on a jugular vein permitted the introduction of a pacing lead into the right atrium. Similarly, for arterial pressure monitoring, a solid-state micromanometer catheter (Millar Instruments) was advanced into the aortic root via a cut-down over an artery (e.g., femoral, carotid). Transthoracic electrodes forming ECG lead II was placed. For vehicle/test article delivery, a 4F catheter was introduced through the trachea and wedged into a small airway, and a venous catheter was placed in a peripheral vessel (i.e., cephalic).
Following instrumentation/hemodynamic stabilization (for at least 15 minutes), right atrial pacing (5-10 V, 40 Hz, 2 ms pulses) was established in order to induce supraventricular tachycardia (SVT); pacing and SVT was sustained throughout the duration of the experiments. Approximately 5 minutes after onset of SVT and while monitoring ECG/arterial pressure continuously, the animals were administered three escalating doses (one at a time) of a test article; each dose was delivered as a bolus (˜3 mL) directly into a small airway through the intratracheal catheter (IT). Following dosing, the heart-rate (HR) and arterial pressure response were monitored for 15 minutes.
Subsequently (once the response to three IT doses had been recorded), hemodynamic recovery was allowed for approximately 30 minutes, and the electrocardiographic/hemodynamic response to the highest test-article dose was re-evaluated; however, for comparison purposes, this dose was delivered intravenously (IV).
Overall, two groups/test-articles were studied, and up to two animals were assigned to each group (n=2/group): one group received esmolol HCL (0.5-1.0 mg/kg, ESM), while the other received adenosine (0.25-1.0 mg/kg, ADN); only one test article was administered to per animal.

[3] = test system: induced atrial fibrillation; experiment: Induced atrial fibrillation model in anesthetized dogs, intratracheal (IT) administration; type: in vivo, dog; conditions: for cardiovascular effect when given intratracheally (summary): summary of study; for conversion of atrial fibrillation to normal sinus rhythm: pulmonary (intratracheal/inhalation route)
Experimental: A venous catheter was placed in a peripheral vessel (i.e., cephalic) for administration of anesthetic. For anesthesia induction, all animals were given morphine sulfate (˜2 mg/kg) and a bolus of alpha chloralose (˜100 mg/kg) intravenously through the venous catheter. Anesthesia was sustained with alpha chloralose (35-75 mg/kg/hour IV), until completion of the study (<2 hours). Following induction, animals were endotracheally intubated and mechanically ventilated (˜12 breaths/minute with a tidal volume of 200-300 mL). Subsequently, a cut-down on a jugular vein permitted introduction of a pacing lead into the right atrium. Transthoracic electrodes forming ECG lead II were placed. For test/vehicle article delivery, a 4F catheter was introduced through the trachea and wedged into a small airway, and a venous catheter was placed in a peripheral vessel (i.e., cephalic). Following instrumentation and hemodynamic stabilization (for at least 15 minutes), phenylephrine was continuously infused (2 ug/kg/min IV) to elevate the systemic arterial pressure and increase vagal (parasympathetic) efferent activity for the duration of the study. Approximately 5 min after administration of this parasympathomimetic was started; the following experiments were performed: First, the right atrium was paced (20 V, 40 Hz, 4 ms pulse) for 15 minutes, and following pacing discontinuation, atrial fibrillation ensued. Approximately 3 minutes after pacing was stopped and atrial fibrillation was observed, the animals were given vehicle (˜3 mL) intra-tracheally (IT); the duration between dosing and, (if observed) the return to sinus rhythm and/or the ventricular rate was noted. Observations were made for up to 10 minutes. Subsequently, atrial fibrillation was re-established via 15-minute pacing cycle(s), as described above. Once pacing was discontinued and atrial fibrillation was observed/stable for 3 minutes, the animals were administered the vehicle or one of the test articles, delivered as a bolus (˜3 mL) directly into a small airway through the intratracheal catheter. Vehicle was only water. In the case of flecainide as the test article, the concentration was 15 mg of flecainide/3 ml of water. Following dosing, the duration between cessation of administration and, if observed, return to sinus rhythm and/or ventricular rate were noted; observations were made for up to 10 minutes.

physchem = type: physicochemical
Excerpt: To evaluate the solubilities of flecainide acetate and diltiazem hydrochloride in water and to evaluate the acceptability of taste and aftertaste of these two drugs for administration as liquid aerosols.

[4] = Preformulation: properties of solutions in water (pH, isotonicity, appearance); type: physicochemical
Experimental: To evaluate the solubilities of flecainide acetate and diltiazem hydrochloride in water and to evaluate the acceptability of taste and aftertaste of these two drugs for administration as liquid aerosols. The following solution strengths were prepared for taste evaluation: (1) diltiazem hydrochloride—50 mg/ml solution in distilled water; and (2) flecainide acetate—30 mg/ml solution in distilled water.

[5] = human, in vivo
Experimental: The following solution strengths were prepared for taste evaluation: (1) diltiazem hydrochloride—50 mg/ml solution in distilled water; and (2) flecainide acetate—30 mg/ml solution in distilled water.
The Aeroneb®GO device was used because it is a simple-to-use device developed specifically for patients who require respiratory therapy in and away from the home. The device can be used by patients of all ages (infant through adult) and aerosolizes solutions intended for inhalation. Aeroneb® Go works with either an AC wall controller or a battery pack, and can be cleaned with soap and water. More details about this device can be obtained at www.aerogen.com.
Number of subjects: 2 healthy male volunteers
Water was poured into the nebulizer cup, and the nebulizer was turned on. The visible cloud of aerosol generated when the nebulizer was turned on was treated as a qualitative aerosol standard.
About 1 ml of the 30 mg/ml solution was poured into the cup of the nebulizer. The nebulizer was turned on and the resulting aerosol was similar to but not as dense as the aerosol formed with the water alone.
The nebulizer was then placed in the mouth and switched on. Deep lung inhalation was performed through the nebulizer. About 40 μl (˜1.2 mg of flecainide acetate) of the test solution was inhaled. The inhaled dose was sub-therapeutic in nature as it was much less than the regular 100 mg administered as tablets. Flecainide acetate is also available as an IV injection in Europe as 10 mg/ml strength in 15 ml ampoules.
About 1 ml of the 50 mg/ml solution was poured into the cup of the nebulizer. The nebulizer was turned on and the resulting aerosol was similar to but not as dense as the aerosol formed with the water alone.
The nebulizer was then placed in the mouth and a switched on. Deep lung inhalation was performed through the nebulizer. About 40 μl (˜2 mg of diltiazem hydrochloride) of the test solution was inhaled. The inhaled dose was sub-therapeutic in nature as it was much less than the IV injection marketed in the U.S. as 5 mg/ml in 5 ml vials.

[6] = pulmonary dose 0.25 mg/kg body weight
[7] = pulmonary dose between 2-4 mg/kg body weight

CCCCCCCCCCCCCCCC(=O)OC[C@H](COP(=O)([O-])OCC[N+](C)(C)C)OC(=O)CCCCCCCCCCCCCCC [DPPC, dipalmitoylphosphatidylcholine]
solubility of the phospholipid in water [1]: about 10^−10 mol/L

Nc1ncnc2c1ncn2[C@@H]1O[C@H](CO)[C@@H](O)[C@H]1O [adenosine]
effect on the heart ([2]; administered via the lung): did not have any effect on the heart
cardiovascular effect when given intratracheally (summary) [2]: clear response was not observed

CN(CCOc1ccc(NS(C)(=O)=O)cc1)CCc1ccc(NS(C)(=O)=O)cc1 [dofetilide]
heart rate ([3]; escalating pulmonary doses of 10-40 mcg/kg body weight): minor reduction in heart rate
ventricular rate ([3]; intratracheal, dose not stated): marginally slowed the ventricular rate
cardiovascular effect when given intratracheally (summary) ([3]; intratracheal): probable effect

COC(=O)CCc1ccc(OCC(O)CNC(C)C)cc1 (stereo not drawn) [esmolol, esmolol HCL]
period of AV block (FIGS. 17, 18) ([2]; 0.5 mg/kg administered via the lung): AV block induced
period of AV block (FIG. 20) ([2]; 0.75 mg/kg administered via the lung): AV block induced
drop in MAP ([2]; delivered via the lung, any of the doses): did not cause a drop in MAP
cardiovascular effect when given intratracheally (summary) [2]: probable effect
PR intervals in the ECG traces ([2]; via the lung (IT), elevating doses): affecting the PR intervals
electrophysiological effects ([2]; via the lung (IT), higher dose 1.0 mg/kg): did not produce the same electrophysiological effects
AV block ([2]; via the lung (IT), lower doses): 2nd degree AV block

COc1ccc([C@@H]2Sc3ccccc3N(CCN(C)C)C(=O)[C@@H]2OC(C)=O)cc1.Cl [diltiazem, diltiazem hydrochloride]
mean arterial blood pressure (MAP) ([3]; dog, in vivo, 0.25 mg/kg): notable drop in mean arterial blood pressure
heart rate ([3]; inhalation route, dose not stated): reduced heart rate
cardiovascular effect when given intratracheally (summary) ([3]; intratracheal): clear cardiovascular effect
conversion of atrial fibrillation to normal sinus rhythm ([3]; dose not stated, hydrochloride): rapidly converted the Atrial Fibrillation to normal sinus rhythm
PQ interval [3, 6]: prolonged the PQ
heart rate [3, 6]: slowed down marginally
conversion of induced atrial fibrillation to normal sinus rhythm ([3]; pulmonary dose 0.25 mg/kg body weight, hydrochloride, 0.25 mg/kg): converted the induced atrial fibrillation to normal sinus rhythm
conversion of induced atrial fibrillation to normal sinus rhythm ([3]; pulmonary dose 0.25 mg/kg body weight, listed as diltiazem HCl, hydrochloride, 0.25 mg/kg): Afib converting
PR interval ([2]; IV or pulmonary route (0.25 mg/kg per FIGS. 14 and 15)): prolonged the PR interval
timing of the electrophysiological change ([2]; IV vs pulmonary): comparable between IV and pulmonary
Mean Arterial Pressure (MAP) ([2]; dog, in vivo, iv, 0.25 mg/kg): dropped significantly in both cases
comparison of pulmonary and IV routes ([2]; pulmonary vs IV (0.25 mg/kg per FIGS. 14 and 15)): comparable in all aspects
solubility (physchem): > 90 mg/mL
pH of solution in water ([4]; 3.5 mg/mL solution in water): 6.7
isotonicity of solution in water (% to isotonic) ([4]; 50 mg/mL in water): about 80%
appearance of solution ([4]; 50 mg/ml solution in distilled water): clear with no visible particulate matter
burning sensations in the mouth, throat, or lungs [5]: No burning sensations was felt in the mouth, throat, or lungs
visible adverse events [5]: No visible adverse events were observed

O=C(NCC1CCCCN1)c1cc(OCC(F)(F)F)ccc1OCC(F)(F)F (stereo not drawn) [flecainide, flecainide acetate]
conversion of Afib (ECG trace, FIG. 12) ([3]; 2 mg/kg body weight): Afib converting as soon as dosing occurred
conversion of Afib to normal sinus rhythm (ECG trace, FIG. 11) ([3]; 4 mg/kg body weight): Afib converting into normal sinus rhythm
cardiovascular effect when given intratracheally (summary) ([3]; intratracheal): clear cardiovascular effect
conversion of atrial fibrillation to normal sinus rhythm ([3]; dose not stated): rapidly converted the Atrial Fibrillation to normal sinus rhythm
adverse events such as proarrhythmia [3, 7]: Neither dogs exhibited any known adverse events such as proarrhythmia
conversion of induced atrial fibrillation to normal sinus rhythm [3, 7]: converted the induced atrial fibrillation to normal sinus rhythm
drop in mean arterial pressure [3, 7]: None to minimal drop in mean arterial pressure
ventricular rate ([3]; pulmonary, large doses): slower ventricular rates
solubility (physchem; water): ~30 mg/mL
pH of solution in water ([4]; 2.6 mg/mL solution in water): 5.0
isotonicity of solution in water (% to isotonic) ([4]; 30 mg/mL in water): about 50%
appearance of solution ([4]; 30 mg/ml solution in distilled water): clear with no visible particulate matter
burning sensations in the mouth, throat, or lungs [5]: No burning sensations was felt in the mouth, throat, or lungs
visible adverse events [5]: No visible adverse events were observed
